In DBAASP:
In brackets after ≈: the same amount, converted by molar mass. Each block holds one compound with its values, some of them ahead of it.

Columns and labels:
Test in all cases: ≥ marks a high value that may be exact or a test limit, other limits are often not marked, values filed in µg/mL are converted to µM
[1] = test system: Pseudomonas aeruginosa Ps4
Escherichia coli = test system: Escherichia coli
Listeria innocua = test system: Listeria innocua
Micrococcus luteus = test system: Micrococcus luteus
[2] = test system: Salmonella enterica subsp. enterica serovar Enteritidis
Micrococcus luteus A270 = test system: Micrococcus luteus A270
Bacillus subtilis 168 = test system: Bacillus subtilis 168
[3] = test system: Candida albicans F7-39/IDE99
Escherichia coli B = test system: Escherichia coli B
Pseudomonas aeruginosa = test system: Pseudomonas aeruginosa
Staphylococcus aureus = test system: Staphylococcus aureus
Bacillus subtilis = test system: Bacillus subtilis
Candida albicans = test system: Candida albicans
[4] = test system: Escherichia coli ATCC 25922
[5] = test system: Staphylococcus aureus ATCC 29213
[6] = test system: Candida albicans ATCC 2002
[7] = test system: Staphylococcus aureus ATCC 25923
[8] = test system: Staphylococcus aureus ATCC BAA-1556

Structure (SMILES): CC(C)C[C@H](NC(=O)[C@H](C)NC(=O)[C@H](CC(N)=O)NC(=O)[C@H](C)NC(=O)[C@@H](NC(=O)CNC(=O)[C@H](C)NC(=O)[C@@H](NC(=O)[C@@H](NC(=O)[C@H](CCCCN)NC(=O)[C@H](CCC(N)=O)NC(=O)[C@H](Cc1ccccc1)NC(=O)[C@H](CC(=O)O)NC(=O)[C@H](C)NC(=O)[C@H](CCC(N)=O)NC(=O)[C@H](CC(C)C)NC(=O)[C@@H](NC(=O)[C@@H]1CCCN1C(=O)[C@@H](NC(=O)[C@H](Cc1ccccc1)NC(=O)[C@@H](N)Cc1ccccc1)[C@@H](C)O)C(C)C)C(C)C)C(C)C)C(C)C)C(=O)N[C@@H](C)C(=O)N[C@@H](Cc1cnc[nH]1)C(=O)N[C@@H](CCCN=C(N)N)C(=O)N[C@@H](Cc1ccc(O)cc1)C(=O)N[C@@H](Cc1cnc[nH]1)C(=O)O [FFTPVLQADFQKVVAGVANALAHRYH]
- MIC (Escherichia coli): 73 µM (≈ 212 µg/mL)
- MIC (Listeria innocua): ≥ 73 µM
- MIC (Micrococcus luteus): ≥ 85 µM
- MIC [2]: ≥ 73 µM

Structure (SMILES): CC(C)C[C@H](NC(=O)[C@@H](N)Cc1ccccc1)C(=O)N[C@@H](CO)C(=O)N[C@@H](Cc1ccccc1)C(=O)N1CCC[C@H]1C(=O)N[C@H](C(=O)N[C@H](C(=O)N[C@@H](CCCCN)C(=O)N[C@H](C(=O)N[C@@H](Cc1ccc(O)cc1)C(=O)N[C@@H](Cc1ccccc1)C(=O)N1CCC[C@H]1C(=O)N[C@@H](Cc1cnc[nH]1)C(=O)O)[C@@H](C)O)[C@@H](C)O)[C@@H](C)O [FLSFPTTKTYFPH]
- MIC (Escherichia coli): 9 µM (≈ 14.3 µg/mL)
- MIC (Listeria innocua): 1 µM (≈ 1.59 µg/mL)
- MIC (Micrococcus luteus A270): 5 µM (≈ 7.93 µg/mL)
- MIC [2]: 5 µM (≈ 7.93 µg/mL)

Structure (SMILES): CC[C@H](C)[C@H](NC(=O)[C@H](CC(N)=O)NC(=O)[C@H](CCCN=C(N)N)NC(=O)[C@H](CCC(N)=O)NC(=O)[C@H](Cc1c[nH]c2ccccc12)NC(=O)[C@@H](N)Cc1ccccc1)C(=O)N[C@@H](CCCN=C(N)N)C(=O)N[C@@H](CCCCN)C(=O)N[C@H](C(=O)N[C@@H](CCCCN)C(=O)N[C@@H](CCCCN)C(N)=O)C(C)C [FWQRNIRKVKK]
- MIC [1]: ≥ 166 µM

Structure (SMILES): CC[C@H](C)[C@H](NC(=O)[C@H](CCCN=C(N)N)NC(=O)[C@@H](NC(=O)[C@H](CCCN=C(N)N)NC(=O)[C@H](CCCN=C(N)N)NC(=O)[C@H](CCC(N)=O)NC(=O)[C@H](Cc1c[nH]c2ccccc12)NC(=O)[C@@H](N)Cc1ccccc1)[C@@H](C)CC)C(=O)N[C@@H](CCCN=C(N)N)C(=O)N[C@@H](CCCN=C(N)N)C(N)=O [FWQRRIRIRR]
- MIC [1]: ≥ 168 µM

Structure (SMILES): CC(C)C[C@@H]1NC(=O)CNC(=O)[C@H](CO)NC(=O)[C@H](CC(C)C)NC(=O)CNC(=O)[C@@H](NC(=O)[C@H](CC(C)C)NC(=O)[C@@H](NC(=O)[C@H](CCCCN)NC(=O)[C@H](CCCCN)NC(=O)CNC(=O)[C@@H](NC(=O)CNC(=O)[C@H](CC(C)C)NC(=O)[C@@H](NC(=O)CNC(=O)[C@H](CO)NC(=O)[C@H](CC(C)C)NC(=O)[C@H](CC(C)C)NC(=O)CN)C(C)C)C(C)C)C(C)C)CSSC[C@@H](C(=O)O)NC1=O [GLLSGVLGVGKKVLCGLSGLC]
- MIC (Bacillus subtilis): 9.5 µM (≈ 18.7 µg/mL)
- MIC (Candida albicans): 2.37 µM (≈ 4.68 µg/mL)
- MIC [4]: 5.73 µM (≈ 11.3 µg/mL)
- MIC (Escherichia coli): 2.37 µM (≈ 4.68 µg/mL)
- MIC [2]: ≥ 64.9 µM
- MIC [5]: 11.5 µM (≈ 22.6 µg/mL)
- MIC (Staphylococcus aureus): 4.75 µM (≈ 9.36 µg/mL)

Structure (SMILES): CC[C@H](C)[C@H](NC(=O)[C@H](C)NC(=O)[C@H](CCCN=C(N)N)NC(=O)[C@H](Cc1ccc(O)cc1)NC(=O)[C@H](CC(C)C)NC(=O)[C@H](CC(N)=O)NC(=O)[C@H](Cc1ccc(O)cc1)NC(=O)CNC(=O)[C@H](C)NC(=O)[C@@H](NC(=O)[C@@H](NC(=O)[C@@H](NC(=O)[C@H](CCCN=C(N)N)NC(=O)[C@@H](NC(=O)[C@@H](NC(=O)[C@@H](NC(=O)[C@@H]1CCCN1C(=O)[C@H](Cc1c[nH]c2ccccc12)NC(=O)[C@H](Cc1ccccc1)NC(=O)[C@H](CCCN=C(N)N)NC(=O)[C@@H](N)CCCCN)C(C)C)C(C)C)[C@@H](C)CC)[C@@H](C)O)C(C)C)C(C)C)C(=O)N[C@@H](CCCCN)C(=O)N[C@@H](CCCCN)C(=O)N[C@@H](CCCCN)C(=O)O [KRFWPVVIRTVVAGYNLYRAIKKK]
- MIC (Bacillus subtilis): 1.21 µM (≈ 3.52 µg/mL)
- MIC [6]: 0.202 µM (≈ 0.586 µg/mL)
- MIC [4]: 6.45 µM (≈ 18.8 µg/mL)
- MIC [7]: 1.21 µM (≈ 3.52 µg/mL)

Structure (SMILES): CC[C@H](C)[C@H](NC(=O)[C@H](CCCCN)NC(=O)[C@H](CCCCN)NC(=O)[C@H](Cc1c[nH]c2ccccc12)NC(=O)[C@H](CC(N)=O)NC(=O)[C@@H](N)C(C)C)C(=O)N[C@@H](CC(C)C)C(=O)NCC(=O)N[C@@H](CCCCN)C(=O)N[C@H](C(=O)N[C@H](C(=O)N[C@@H](CCCCN)C(=O)N[C@H](C(=O)N[C@@H](C)C(=O)N[C@@H](CCCCN)C(N)=O)C(C)C)[C@@H](C)CC)[C@@H](C)CC [VNWKKILGKIIKVAK]
- MIC (Bacillus subtilis 168): 0.7 µM (≈ 1.22 µg/mL)
- MIC [3]: 10 µM (≈ 17.4 µg/mL)
- MIC (Escherichia coli B): 1.4 µM (≈ 2.43 µg/mL)
- MIC (Pseudomonas aeruginosa): 14.4 µM (≈ 25 µg/mL)
- MIC (Staphylococcus aureus): 9 µM (≈ 15.6 µg/mL)

Structure (SMILES): CC[C@H](C)[C@H](NC(=O)[C@H](C)NC(=O)[C@H](CCCN=C(N)N)NC(=O)[C@H](Cc1ccc(O)cc1)NC(=O)[C@H](CC(C)C)NC(=O)[C@H](CC(N)=O)NC(=O)[C@H](Cc1ccc(O)cc1)NC(=O)CNC(=O)[C@H](C)NC(=O)[C@@H](NC(=O)[C@@H](NC(=O)[C@@H](NC(=O)[C@H](CCCN=C(N)N)NC(=O)[C@@H](NC(=O)[C@@H](NC(=O)[C@@H](NC(=O)[C@@H]1CCCN1C(=O)[C@@H](N)Cc1c[nH]c2ccccc12)C(C)C)C(C)C)[C@@H](C)CC)[C@@H](C)O)C(C)C)C(C)C)C(=O)N[C@@H](CCCCN)C(=O)N[C@@H](CCCCN)C(=O)N[C@@H](CCCCN)C(=O)O [WPVVIRTVVAGYNLYRAIKKK]
- MIC (Bacillus subtilis): 15.2 µM (≈ 37.5 µg/mL)
- MIC [6]: 0.947 µM (≈ 2.34 µg/mL)
- MIC [4]: 15.2 µM (≈ 37.5 µg/mL)
- MIC [7]: 5.68 µM (≈ 14.1 µg/mL)

Results, then the compound that gave them:

- MIC [1]: ≥ 170 µM
Structure (SMILES): CC[C@H](C)[C@H](NC(=O)[C@H](CC(N)=O)NC(=O)[C@H](CCCN=C(N)N)NC(=O)[C@H](CCC(N)=O)NC(=O)[C@H](Cc1c[nH]c2ccccc12)NC(=O)[C@H](C)NC(=O)[C@@H](N)Cc1ccccc1)C(=O)N[C@@H](CCCN=C(N)N)C(=O)N[C@@H](CCCCN)C(=O)N[C@H](C(=O)N[C@@H](CCCN=C(N)N)C(N)=O)C(C)C [FAWQRNIRKVR]

- MIC [1]: ≥ 47.9 µM
Structure (SMILES): CC[C@H](C)[C@H](NC(=O)[C@@H](N)Cc1ccccc1)C(=O)N[C@@H](Cc1c[nH]c2ccccc12)C(=O)N[C@@H](CCCN=C(N)N)C(=O)N[C@@H](Cc1c[nH]c2ccccc12)C(=O)N[C@@H](CCCN=C(N)N)C(=O)N[C@@H](Cc1c[nH]c2ccccc12)C(=O)N[C@@H](CCCN=C(N)N)C(N)=O [FIWRWRWR]

- MIC [1]: ≥ 108 µM
Structure (SMILES): NC(=O)[C@H](CCCN=C(N)N)NC(=O)[C@H](CCCN=C(N)N)NC(=O)[C@H](Cc1c[nH]c2ccccc12)NC(=O)[C@H](CCCN=C(N)N)NC(=O)[C@H](CCCN=C(N)N)NC(=O)[C@H](Cc1c[nH]c2ccccc12)NC(=O)[C@@H](N)Cc1ccccc1 [FWRRWRR]

- MIC (Bacillus subtilis 168): 1.3 µM (≈ 1.91 µg/mL)
- MIC [3]: 7 µM (≈ 10.3 µg/mL)
- MIC (Escherichia coli B): 2.7 µM (≈ 3.96 µg/mL)
- MIC (Pseudomonas aeruginosa): 38.3 µM (≈ 56.2 µg/mL)
- MIC (Staphylococcus aureus): 5.3 µM (≈ 7.77 µg/mL)
Structure (SMILES): CC[C@H](C)[C@H](NC(=O)[C@H](Cc1cnc[nH]1)NC(=O)[C@H](CCCCN)NC(=O)[C@H](CC(C)C)NC(=O)[C@H](CC(C)C)NC(=O)[C@@H](NC(=O)[C@H](CCSC)NC(=O)[C@H](Cc1c[nH]c2ccccc12)NC(=O)[C@H](CCCCN)NC(=O)CN)[C@@H](C)O)C(=O)N[C@@H](CC(C)C)C(=O)N[C@@H](CCCCN)C(N)=O [GKWMTLLKHILK]

- MIC [8]: ≥ 100 µM
Structure (SMILES): CC(C)C[C@H](NC(=O)[C@H](CC(C)C)NC(=O)[C@H](CCCCN)NC(=O)[C@H](CC(C)C)NC(=O)[C@H](CC(C)C)NC(=O)[C@H](CC(C)C)NC(=O)[C@H](CC(C)C)NC(=O)[C@H](CC(C)C)NC(=O)[C@@H](N)CC(C)C)C(N)=O [LLLLLLKLL]

- MIC [8]: 3.12 µM (≈ 4.28 µg/mL)
Structure (SMILES): CC(C)C[C@H](NC(=O)[C@H](Cc1c[nH]c2ccccc12)NC(=O)[C@H](CCCN=C(N)N)NC(=O)[C@H](CC(C)C)NC(=O)[C@H](Cc1c[nH]c2ccccc12)NC(=O)[C@H](Cc1c[nH]c2ccccc12)NC(=O)[C@H](CC(C)C)NC(=O)[C@H](Cc1c[nH]c2ccccc12)NC(=O)[C@@H](N)CC(C)C)C(N)=O [LWLWWLRWL]

- MIC [8]: 12.5 µM (≈ 13.4 µg/mL)
Structure (SMILES): CC(C)C[C@H](NC(=O)[C@H](Cc1c[nH]c2ccccc12)NC(=O)[C@H](CCCN=C(N)N)NC(=O)[C@H](CC(C)C)NC(=O)[C@H](Cc1c[nH]c2ccccc12)NC(=O)[C@H](Cc1c[nH]c2ccccc12)NC(=O)[C@@H](N)CC(C)C)C(N)=O [LWWLRWL]

- MIC [8]: 6.25 µM (≈ 7.86 µg/mL)
Structure (SMILES): CC(C)C[C@H](NC(=O)[C@H](Cc1c[nH]c2ccccc12)NC(=O)[C@H](CCCN=C(N)N)NC(=O)[C@H](CC(C)C)NC(=O)[C@H](Cc1c[nH]c2ccccc12)NC(=O)[C@H](Cc1c[nH]c2ccccc12)NC(=O)[C@H](CC(C)C)NC(=O)[C@@H](N)Cc1c[nH]c2ccccc12)C(N)=O [WLWWLRWL]
